Legend:
miR-155-5p = miR-155-5p levels in CD14+ monocytes cultured with HDL+SAA1 (qRT-PCR); type: cell-based, human; conditions: 24 h
Method: Quantitative RT-PCR (qRT-PCR). Total RNA was purified using the Direct-Zol™ RNA MiniPrep kit and total RNA (100 ng) was reverse transcribed into cDNA using the High-Capacity cDNA Reverse Transcription Kit (Applied Biosystems, Foster City, Calif.). Polymerase chain reactions (PCR) were performed on duplicate cDNA samples using TaqMan Universal PCR Master Mix, FAM-MGB dye-labeled Taqman® PTGS2 probe (Assay ID Hs00153133_m1, catalog #4331182), and a 7900 Real Time PCR System running Sequence Detector version 2.4 software, all from Applied Biosystems (Foster City, Calif.). […] For quantification of miR-155-5p expression, miRNA present in total RNA (10 ng) was converted to cDNA using the microRNA cDNA Reverse Transcription kit (Applied Biosystems, Foster City, Calif.). Polymerase chain reaction (PCR) was performed on duplicate cDNA samples using TaqMan Universal PCR Master Mix, Taqman® MicroRNA Assay for has-miR-155-5p (Assay ID #002623, catalog #4427975), and a 7900HT Fast Real-Time PCR System running Sequence Detector version 2.4 software (ThermoFisher Scientific, Waltham, Mass.). miR-155-5p expression was quantified relative to expression of U6 snRNA using the control sample as calibrator to calculate the difference in Ct values (ΔΔCt) and presented as relative mRNA expression.

CD14^+ monocytes = assay: HDL+SAA1-induced cytokine secretion by ex vivo CD14+ monocytes (ELISA); type: cell-based, human; conditions: for HDL+SAA1-mediated increases in cytokine secretion: 24 h
Method: Isolation of Peripheral Blood Monocytes. Peripheral blood monocytes were isolated using a two-step process. Peripheral blood was diluted with PBS at a 1:1 ratio, slowly overlaid onto 30 ml of Lymphoprep™ (catalog #07811, StemCell Technologies, Vancouver Canada) in a 50 ml conical tube, and centrifuged at 400×g for 25 min without braking. The peripheral blood mononuclear cell (PBMC) layer was carefully transferred to another 50 ml conical tube, washed with PBS, followed by two washes with FACS buffer (0.5 mM EDTA, 1% BSA, and 1% mouse serum in PBS). Monocytes subsets were identified and sorted by flow cytometry using the following antibodies: PE mouse anti-human CD45 clone HI30 (catalog #555483), BV421 mouse anti-human CD14 clone MφP9 (catalog #563743), and FITC mouse anti-human CD16 clone B73.1 (catalog #561308), and a FACS ARIA Fusion sorter equipped with 355, 407, 488, 532 and 640 nm LASER lines using FACS DIVA 8.0 software (all from BD Biosciences, San Jose, Calif.). The gating strategy identified a population of debris-free, single, live, ^SSCmoderate/high, CD45^+ cells from which CD14^+/CD16^− (classical), CD14^+/CD16^+ (intermediate), CD14^dim/CD16^+ (non-classical), and CD14^+ (classical and intermediate) cells were sorted and utilized for experiments, as indicated (Supplemental FIG. 4).
HDL+SAA1 Stimulation of Peripheral Blood Monocytes Subsets. […] As previously described, normal HDL was isolated from plasma obtained from healthy subjects by sequential KBr differential gradient ultracentrifugation at 330,000 g and extensive dialysis with 50 mM HEPES, 50 mM NaCL, 5 mM MgCl2 and 2 mM CaCl2, pH 7.0, at 4° C. Normal HDL was complexed with recombinant human serum amyloid A-1 at a 2:1 ratio by mixing and incubated at RT overnight to generate HDL+SAA1, which was filtered using a 100-kDa exclusion filter (Amicon Ultra Centrifuge Filters, Millipore, Darmstadt, Germany) to remove any uncomplexed SAA1. Normal HDL was also complexed with the amount of lipopolysaccharide (catalog # L4391, E. coli 0111:B4, y-irradiated, MilliporeSigma, St. Louis, Mo.) present in recombinant human SAA1. Additionally, classical CD14^+ monocytes were treated with the P2X7R antagonist, A438079, the IKK inhibitor, BAY-11-7082, the IKKβ (IKK-2) inhibitor, TPCA-1, or the selective COX-2 inhibitor, celexocib, all from MilliporeSigma(St. Louis, Mo.). Cells were also treated with the FPR2 antagonist, WRW4, or diclofenac from Tocris (Minneapolis, Minn.). The amount of IL-1β, IL-6, TNF-α and IL-10 secreted into cell culture supernatants was quantified using human DuoSet ELISA kits (R&D Systems) and data were acquired using a SpectraMax M2 spectrophotometer (Molecular Devices, San Jose, Calif.). Western blotting, as previously described^43, was performed using antibodies directed against COX-1 (catalog #160110) and COX-2 (catalog #160112), both from Cayman Chemical (Ann Arbor, Mich.). Equivalency of protein loading was established using an antibody directed against GAPDH (catalog #MAB5718) from R&D Systems (Minneapolis, Minn.). Western blots images were captured using an iBright FL1000 Western Blot Imaging System (ThermoFisher Scientific, Waltham, Mass.) and quantified using NIH ImageJ software (imagej.nih.gov). […]

[1] = A438079 10 μM, pre-treated 1 h, HDL+SAA1 24 h

Clc1cccc(-c2nnnn2Cc2cccnc2)c1Cl [A438079]
HDL+SAA1-mediated increases in miR-155-5p (miR-155-5p; A438079 10 μM): significantly reduced
HDL+SAA1-mediated secretion of IL-1β (CD14^+ monocytes; [1]): significantly reduced
HDL+SAA1-mediated secretion of IL-6 (CD14^+ monocytes; [1]): significantly reduced
HDL+SAA1-mediated secretion of IL-10 (CD14^+ monocytes; [1]): significantly reduced
HDL+SAA1-mediated secretion of TNF-α (CD14^+ monocytes; [1]): significantly reduced

Cc1ccc(S(=O)(=O)/C=C/C#N)cc1 [BAY 11-7082]
HDL+SAA1-mediated increases in miR-155-5p (miR-155-5p; BAY-11-7082 10 μM): attenuated
HDL+SAA1-mediated increases in cytokine secretion (CD14^+ monocytes; BAY-11-7082 10 μM): prevented

NC(=O)Nc1sc(-c2ccc(F)cc2)cc1C(N)=O [TPCA1]
HDL+SAA1-mediated increases in miR-155-5p (miR-155-5p; TPCA-1 1 μM): attenuated
HDL+SAA1-mediated increases in cytokine secretion (CD14^+ monocytes; TPCA-1 1 μM): prevented
